Literature values as cited in patent US20250170146A1, “NIRAPARIB AND ABIRATERONE ACETATE PLUS PREDNISONE TO IMPROVE CLINICAL OUTCOMES IN PATIENTS WITH METASTATIC CASTRATION-RESISTANT PROSTATE CANCER AND HRR ALTERATIONS” (JANSSEN PHARMACEUTICA NV, priority 2022, published 2025).
Like-named read-outs stand apart in the source and are kept apart here.

What was measured:
CYP2C8 = target: T1, CYP2C8 (Homo sapiens, UniProt P10632); settings: pioglitazone with a single dose of 1,000 mg AA; healthy subjects
T1 construct: host or cells: healthy subjects (in vivo; the subjects' own enzyme)
T1 sequence (P10632 1-490): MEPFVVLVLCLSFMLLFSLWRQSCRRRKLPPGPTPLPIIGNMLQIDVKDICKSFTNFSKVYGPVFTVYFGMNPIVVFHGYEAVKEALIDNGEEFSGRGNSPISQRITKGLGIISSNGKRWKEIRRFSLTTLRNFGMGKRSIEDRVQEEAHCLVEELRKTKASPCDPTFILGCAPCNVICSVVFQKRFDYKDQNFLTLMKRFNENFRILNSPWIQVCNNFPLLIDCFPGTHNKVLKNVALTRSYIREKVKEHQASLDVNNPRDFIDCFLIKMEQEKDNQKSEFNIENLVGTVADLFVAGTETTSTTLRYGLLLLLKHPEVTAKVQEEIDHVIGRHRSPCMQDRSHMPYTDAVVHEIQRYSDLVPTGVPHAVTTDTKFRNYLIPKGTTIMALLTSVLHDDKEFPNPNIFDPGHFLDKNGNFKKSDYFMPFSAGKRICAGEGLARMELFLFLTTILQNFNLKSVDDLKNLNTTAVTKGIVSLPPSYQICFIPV

post-docetaxel mCRPC = settings: Affirm
[1] = test system: first line (pre-docetaxel) mCRPC; settings: Prevail
mCRPC = settings: TAX-327

In the case of `CC(=O)O[C@H]1CC[C@@]2(C)C(=CC[C@@H]3[C@@H]2CC[C@]2(C)C(c4cccnc4)=CC[C@@H]32)C1` [AA, Abiraterone acetate], the “increase in AUC of pioglitazone” value (CYP2C8) is listed as 46%.
For `CNC(=O)c1ccc(N2C(=S)N(c3ccc(C#N)c(C(F)(F)F)c3)C(=O)C2(C)C)cc1F` [Enzalutamide], the OS (post-docetaxel mCRPC) is given as 18.4 months, the “OS benefit vs placebo” value (post-docetaxel mCRPC) is given as 4.8 months and the PSA50 response (post-docetaxel mCRPC) is given as 54%. The QoL response rate (post-docetaxel mCRPC) was 43%, the TTPSA progression (post-docetaxel mCRPC) was 8.3 months and the rPFS (post-docetaxel mCRPC) was 8.3 months. For the same compound, the “12-month rPFS milestone” value [1] was 65%, the “investigator assessed rPFS” value [1] was 20 months and the “median OS” value [1] was 35.3 months. The “median rPFS” value [1] was “not reached”, the “objective response rate (ORR)” value [1] was 59% and the “rPFS benefit by BICR Hazard Ratio” value [1] was 0.32. The “rPFS risk reduction by BICR” value [1] was 68%.
In the case of `CC(=O)O[C@@]12CO[C@@H]1C[C@H](O)[C@@]1(C)C(=O)[C@H](O)C3=C(C)[C@@H](OC(=O)[C@H](O)[C@@H](NC(=O)OC(C)(C)C)c4ccccc4)C[C@@](O)([C@@H](OC(=O)c4ccccc4)[C@H]21)C3(C)C` [docetaxel], the “OS benefit vs mitoxantrone” value (mCRPC) is listed as 2.4 months, the PSA50 response (mCRPC) is listed as 45% and the “overall survival (OS)” value (mCRPC) is listed as 18.9 months. The “quality of life (QoL) response” value (mCRPC) was 22% and the tumor response (mCRPC) was 12%.
In the case of `O=C1c2c(O)ccc(O)c2C(=O)c2c(NCCNCCO)ccc(NCCNCCO)c21` [mitoxantrone], the PSA50 response (mCRPC) is given as 32%, the “overall survival (OS)” value (mCRPC) is given as 16.5 months and the “quality of life (QoL) response” value (mCRPC) is given as 13%. The tumor response (mCRPC) was 7%.
In the case of `Cc1ccc(S(=O)(=O)O)cc1.NC(=O)c1cccc2cn(-c3ccc([C@@H]4CCCNC4)cc3)nc12` [niraparib, 2-[4-[(3S)-piperidin-3-yl]phenyl]-2H-indazole-7-carboxamide], the “median OS” value (L2+ mCRPC HRR-positive; L2+ mCRPC BRCA patients) is given as 13.01 months, the “median rPFS” value (L2+ mCRPC HRR-positive; L2+ mCRPC BRCA patients) is given as 8.08 months and the “median time to PSA progression” value (L2+ mCRPC HRR-positive; L2+ mCRPC BRCA patients) is given as 5.13 months. For the same compound, the “median time to symptomatic skeletal event” value (L2+ mCRPC HRR-positive; L2+ mCRPC BRCA patients) was 13.80 months, the “overall response rate (ORR)” value (L2+ mCRPC HRR-positive; L2+ mCRPC BRCA patients) was 34.2% and the ORR (L2+ mCRPC HRR-positive; L2+ mCRPC non-BRCA patients) was 10.6%. For the same compound, the “median OS” value (L2+ mCRPC HRR-positive; non-BRCA patients) was 9.63 months, the “median rPFS” value (L2+ mCRPC HRR-positive; non-BRCA patients) was 3.71 months and the “median time to PSA progression” value (L2+ mCRPC HRR-positive; non-BRCA patients) was 3.65 months. For the same compound, the “median time to symptomatic skeletal event” value (L2+ mCRPC HRR-positive; non-BRCA patients) was 10.35 months.
